Assay results reported in ChEMBL document CHEMBL1201862, “PubChem BioAssay data set” (2004).
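Tested at 5 concentrations; 48 h exposure; 96-well plates; endpoints linearly interpolated, else capped at highest concentration. GI50 is the concentration that inhibits growth by half.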 Calls of active or inactive are those of the source. Cut-off read from the data, not from the text of the source: active = GI50 up to about 1.1 µM and inactive = higher.

Columns and labels:
Assay in all cases: DTP human tumour cell line panel, 48 h
HOP-62 = system: HOP-62
SNB-19 = system: SNB-19
KM-20L2 = system: KM-20L2
SN12C = system: SN12C
DLD-1 = system: DLD-1
COLO 205 = system: COLO 205
HCC 2998 = system: HCC 2998
NCI-H226 = system: NCI-H226
RXF 631 = system: RXF 631
SK-MEL-28 = system: SK-MEL-28
UACC-62 = system: UACC-62
ACHN = system: ACHN
A498 = system: A498
IGROV-1 = system: IGROV-1
KM12 = system: KM12
OVCAR-3 = system: OVCAR-3
HCT-15 = system: HCT-15
HOP-18 = system: HOP-18
SF-539 = system: SF-539
SW-620 = system: SW-620
CAKI-1 = system: CAKI-1
TK-10 = system: TK-10
786-0 = system: 786-0
NCI-H460 = system: NCI-H460
SF-268 = system: SF-268
RPMI-8226 = system: RPMI-8226
K562 = system: K562
SNB-78 = system: SNB-78
OVCAR-4 = system: OVCAR-4
LOX IMVI = system: LOX IMVI
SK-MEL-5 = system: SK-MEL-5
UO-31 = system: UO-31
CCRF-CEM = system: CCRF-CEM
OVCAR-8 = system: OVCAR-8
M14 = system: M14
SF-295 = system: SF-295
SNB-75 = system: SNB-75
Malme-3M = system: Malme-3M
HT-29 = system: HT-29
UACC-257 = system: UACC-257
SK-MEL-2 = system: SK-MEL-2
HOP-92 = system: HOP-92
M19-MEL = system: M19-MEL
SK-OV-3 = system: SK-OV-3
OVCAR-5 = system: OVCAR-5
NCI-H23 = system: NCI-H23
HCT-116 = system: HCT-116
U-251 = system: U-251
A549 = system: A549
DMS-273 = system: DMS-273
EKVX = system: EKVX
DU-145 = system: DU-145
NCI-H522 = system: NCI-H522
DMS-114 = system: DMS-114
MDA-MB-435 = system: MDA-MB-435
Hs-578T = system: Hs-578T
HL-60 = system: HL-60
BT-549 = system: BT-549
LXFL 529 = system: LXFL 529
NCI/ADR-RES = system: NCI/ADR-RES
MDA-MB-231 = system: MDA-MB-231
PC-3 = system: PC-3
T47D = system: T47D
RXF 393 = system: RXF 393
XF498 = system: XF498
MCF7 = system: MCF7
SR = system: SR
MDA-N = system: MDA-N
MOLT-4 = system: MOLT-4

O=c1c2cc(Br)ccc2[nH]c(=S)n1-c1ccccc1
GI50 (HOP-62): > 100 µM (inactive) | GI50 (SNB-19): > 100 µM (inactive) | GI50 (KM-20L2): > 100 µM (inactive) | GI50 (SN12C): > 100 µM (inactive) | GI50 (DLD-1): > 100 µM (inactive) | GI50 (COLO 205): > 100 µM (inactive) | GI50 (HCC 2998): > 100 µM (inactive) | GI50 (NCI-H226): > 100 µM (inactive) | GI50 (RXF 631): > 100 µM (inactive) | GI50 (SK-MEL-28): > 100 µM (inactive) | GI50 (UACC-62): > 100 µM (inactive) | GI50 (ACHN): > 100 µM (inactive) | GI50 (A498): > 100 µM (inactive) | GI50 (IGROV-1): > 100 µM (inactive) | GI50 (KM12): > 100 µM (inactive) | GI50 (OVCAR-3): > 100 µM (inactive) | GI50 (HCT-15): > 100 µM | GI50 (HOP-18): > 100 µM (inactive) | GI50 (SF-539): > 100 µM (inactive) | GI50 (SW-620): > 100 µM (inactive) | GI50 (CAKI-1): > 100 µM (inactive) | GI50 (TK-10): > 100 µM (inactive) | GI50 (786-0): > 100 µM (inactive) | GI50 (NCI-H460): > 100 µM (inactive) | GI50 (SF-268): > 100 µM (inactive) | GI50 (RPMI-8226): > 100 µM (inactive) | GI50 (K562): > 100 µM (inactive) | GI50 (SNB-78): > 100 µM (inactive) | GI50 (OVCAR-4): > 100 µM (inactive) | GI50 (LOX IMVI): > 100 µM (inactive) | GI50 (SK-MEL-5): > 100 µM (inactive) | GI50 (UO-31): > 100 µM (inactive) | GI50 (CCRF-CEM): > 100 µM (inactive) | GI50 (OVCAR-8): > 100 µM (inactive) | GI50 (M14): > 100 µM (inactive) | GI50 (SF-295): > 100 µM (inactive) | GI50 (SNB-75): > 100 µM (inactive) | GI50 (Malme-3M): > 100 µM (inactive) | GI50 (HT-29): > 100 µM (inactive) | GI50 (UACC-257): > 100 µM (inactive) | GI50 (SK-MEL-2): > 100 µM (inactive) | GI50 (HOP-92): > 100 µM (inactive) | GI50 (M19-MEL): > 100 µM (inactive) | GI50 (SK-OV-3): > 100 µM (inactive) | GI50 (OVCAR-5): > 100 µM (inactive) | GI50 (NCI-H23): > 100 µM (inactive) | GI50 (HCT-116): > 100 µM (inactive) | GI50 (U-251): > 100 µM (inactive) | GI50 (A549): > 100 µM (inactive) | GI50 (DMS-273): > 100 µM (inactive) | GI50 (EKVX): > 100 µM (inactive)

Nc1ccc2c(SCc3ccc([N+](=O)[O-])cc3)c3ccccc3nc2c1
GI50 (HOP-62): 21.8 µM (inactive) | GI50 (SNB-19): 21.9 µM (inactive) | GI50 (KM-20L2): 16.5 µM (inactive) | GI50 (SN12C): 18.6 µM (inactive) | GI50 (DLD-1): 2.39 µM (inactive) | GI50 (COLO 205): 2.28 µM (inactive) | GI50 (DU-145): 13.4 µM (inactive) | GI50 (HCC 2998): 21.5 µM (inactive) | GI50 (NCI-H522): 3.47 µM (inactive) | GI50 (NCI-H226): 18.7 µM (inactive) | GI50 (DMS-114): 15 µM (inactive) | GI50 (SK-MEL-28): 15.6 µM (inactive) | GI50 (MDA-MB-435): 14.5 µM (inactive) | GI50 (UACC-62): 16.3 µM (inactive) | GI50 (ACHN): 5 µM (inactive) | GI50 (Hs-578T): 17.6 µM (inactive) | GI50 (A498): 22.5 µM (inactive) | GI50 (IGROV-1): 19.5 µM (inactive) | GI50 (KM12): 12.5 µM (inactive) | GI50 (OVCAR-3): 15.8 µM (inactive) | GI50 (HCT-15): 13.5 µM | GI50 (HL-60): 1.31 µM (inactive) | GI50 (HOP-18): 13.5 µM (inactive) | GI50 (SF-539): 16.4 µM (inactive) | GI50 (SW-620): 2.87 µM (inactive) | GI50 (CAKI-1): 13.3 µM (inactive) | GI50 (TK-10): 11.9 µM (inactive) | GI50 (786-0): 7.52 µM (inactive) | GI50 (NCI-H460): 21.7 µM (inactive) | GI50 (BT-549): 17.9 µM (inactive) | GI50 (SF-268): 15.2 µM (inactive) | GI50 (LXFL 529): 6.08 µM (inactive) | GI50 (RPMI-8226): 2.7 µM (inactive) | GI50 (NCI/ADR-RES): 18.2 µM (inactive) | GI50 (K562): 3.54 µM (inactive) | GI50 (MDA-MB-231): 25.5 µM (inactive) | GI50 (SNB-78): 21.9 µM (inactive) | GI50 (OVCAR-4): 14.1 µM (inactive) | GI50 (LOX IMVI): 6.84 µM (inactive) | GI50 (SK-MEL-5): 15.2 µM (inactive) | GI50 (UO-31): 14 µM (inactive) | GI50 (CCRF-CEM): 1.35 µM (inactive) | GI50 (OVCAR-8): 13.2 µM (inactive) | GI50 (PC-3): 16 µM (inactive) | GI50 (T47D): 8.02 µM (inactive) | GI50 (RXF 393): 19.4 µM (inactive) | GI50 (XF498): 14.6 µM (inactive) | GI50 (MCF7): 13.6 µM (inactive) | GI50 (SR): 1.42 µM (inactive) | GI50 (M14): 11.4 µM (inactive) | GI50 (SF-295): 18.2 µM (inactive) | GI50 (MDA-N): 12.8 µM (inactive) | GI50 (SNB-75): 17.7 µM (inactive) | GI50 (Malme-3M): 13.5 µM (inactive) | GI50 (HT-29): 17.5 µM (inactive) | GI50 (UACC-257): 16.4 µM (inactive) | GI50 (SK-MEL-2): 16.4 µM (inactive) | GI50 (HOP-92): 15.2 µM (inactive) | GI50 (M19-MEL): 13.2 µM (inactive) | GI50 (SK-OV-3): 20.5 µM (inactive) | GI50 (OVCAR-5): 18.3 µM (inactive) | GI50 (NCI-H23): 17 µM (inactive) | GI50 (HCT-116): 7.53 µM (inactive) | GI50 (U-251): 18.2 µM (inactive) | GI50 (MOLT-4): 2.3 µM (inactive) | GI50 (A549): 21.6 µM (inactive) | GI50 (DMS-273): 19.9 µM (inactive) | GI50 (EKVX): 24.8 µM (inactive)
